# According to US11291705B2, “Use of caspase-3 inhibitors and caspase-3 activators in the manufacture of medicament for treating cancer and wound healing” (Technion Research & Development Foundation Limited, priority 2016, dated 2022):
# Columns and labels:
# sebaceous gland (SG) = test: Sebaceous gland (SG) size and cell proliferation in mice injected subcutaneously with caspase-3 inhibitors or activators; format: in vivo; details: eight week old mice, subcutaneous injection for 7 days
# Description: Immunofluorescence—Skins were embedded in OCT, frozen, sectioned, and fixed in 4% paraformaldehyde. Tail samples were treated with 5 mM EDTA for 4 hours at 37° C. to separate skin epithelium from dermis and fixed in formal saline for 2 hours at room temperature. Dorsal samples were treated with 5 mM EDTA for 6 hours at 37° C. to separate skin epithelium from dermis and fixed in formal saline for 1 hour at room temperature. Samples were blocked for 2 hours in Blocking buffer consisting of 10% Goat serum, 2% BSA, 0.2% Triton-X. Primary antibodies were diluted in blocking buffer and tissue/sections were incubated overnight at 4° C. Whole mounts or sections were washed at least 3 times with PBS. Secondary antibodies were incubated for 1 hour at room temperature followed by 4 washes with PBS. The following primary antibodies were used: YAP (Rabbit, 1:100, Cell Signalling, Mouse 1:100 Santa Cruz), pYAP (Rabbit, 1:100 Cell Signalling), α-E-Catenin (Rabbit, 1:100, Cell Signalling), Ki67 (Rabbit, 1:100, Abcam; Rat, 1:100, eBioscience), CD34 (Rat, 1:100, eBioscience), K15 (Mouse, 1:100, Thermo, Chicken, 1:1000, Abcam), Sox9 (Rabbit, 1:100, Millipore, Goat, 1:50, Santa Cruz). Cleaved-Caspase-3 (Rabbit, 1:100, Cell signalling), Phalloidin (1:250, Life Technologies). TUNEL was performed using ApopTag TdT (Millipore). […] Analysis was performed on Zeiss LSM 880 confocal microscope.
# YAP [1] = test: YAP nuclear translocation and pYAP levels in EGFPhigh SGPZ cells; format: cell-based, mice; details: immunoblot
# Description: (§1) Cell culture—The HaCaT and HEK293 cell lines were cultured in DMEM medium supplemented with 10% FBS, 1% P/S (Pen/Strep) and 1% L-glutamine. Integrin α6^+CD34^+ HFSCs and integrin α6^+CD34^−EGFP^high SGPZ cells were isolated and cultured in HFSC media on sustaining J2 feeder cells. Serum was chelated for a calcium concentration of 50 μM. […] Cells were fixed in 4% PFA for 10 minutes for immunofluorescence analysis or harvested for protein or RNA extraction.
# Given that Caspase-3 inhibition hindered cell number and proliferation in vitro the present inventors next examined whether this was mediated via YAP in EGFP^high SGPZ cells using K15^+ SGPZ cells. […] Similar findings as to effect of caspase-3 inhibition on YAP activation and proliferation were also obtained in HaCaT and Hek293E3 cells (FIGS. 3J-K, FIGS. 11B-F).
# [2] = system: integrin α6+CD34−EGFPhigh SGPZ cells; test: Proliferation and expansion of isolated SGPZ cells treated with caspase-3 inhibitors; format: cell-based, mice; details: z-DEVD-fmk added initially
# Description: Flow Cytometry—SGPZ cell isolation and FACS analysis were performed with K15-EGFP mice and CD34, integrin α6 and Sca1 antibodies. K15-GFP^high cells were isolated from ears and dorsal skin of 8-week old B6.Cg-Tg(Krt1-15-EGFP)2Cot/J mice.
# YAP [3] = test: YAP localization and pYAP levels in HEK293 cells; format: cell-based
# Description: as §1
# [4] = system: excision wounds (1 cm^2) on dorsal skin; test: Wound repair of full thickness excision wounds on dorsal skin; format: in vivo, mice
# Description: For all wound repair experiments, mice were sedated with isofluorane. Mice were shaved with electric clippers and treated topically with a hair removal cream for a few minutes (Nair). Full-thickness excision wounds (1 cm^2) were generated on the dorsal skins and monitored for wound coverage. PWI, mice were individually housed. At the desired time PWI, mice were euthanized with CO2 and the wounded skins were harvested and either embedded in OCT or prepared for whole mounts as described above or for protein extraction.
# Inhibition of caspase-3 impairs wound repair—Since YAP is known to play a chief role in regeneration (34), the present inventors investigated whether in vivo inhibition of Caspase-3 affects the wound repair dynamic by modulating YAP activity. […] Full thickness excision wounds (1.0 cm^2) were generated on the dorsalbacks and monitored for wound coverage. In control mice, three days post wound infliction (PWI) the wound size was reduced by 60% while in Ivachtin and z-DEVD-fink (SEQ ID NO: 71) treated mice, it was reduced by only 10% and 20%, respectively (FIG. 5A and FIG. 5B).
# [5] = system: integrin α6+CD34+ HFSCs, HaCaT keratinocytes and Hek293E3 cells; test: Expansion of other cell types treated with caspase-3 inhibitors; format: cell-based; details: one treatment
# Description: In order to examine whether Caspase-3 affects the expansion of other cell types the present inventors isolated integrin α6^+CD34^+ HFSCs from second telogen mice.
# human melanoma cells = test: GFP-infected human melanoma cells injected into recipient mice; details: mouse, in vivo
# Description: FIG. 15A—Melanoma cell were injected into recipient mice. […] Representative image 6 days after first treatment. FIG. 15B—quantification of tumor development indicates inhibition of tumor size in response to caspase-3 inhibition. FIG. 15C—Extracted tumors were analyzed for proliferation using the Ki67 marker and the presence of GFP^+ melanoma cells. FIG. 15D—Tumors treated with the caspase-3 activator ABT-199 result in a dramatic increase in tumor mass. […] Scale bars, 20 μm.
# Examination of the effect of caspase-3 inhibition on melanoma formation in vivo—For this aim human melanoma cells were stably infected with GFP. Cells were then injected into to recipient mice and the effect of administrating caspase-3 inhibitors was monitored.
# B16F10 melanoma cells = B16F10 melanoma cells in vitro: growth, Ki67, pYAP, α-Catenin; format: cell-based
# Description: FIG. 23D—A histogram depicting quantifications of 501-A total cells number after treatment with Z-DEVD-fink (SEQ ID NO: 71). FIG. 23E—Images depicting B16F10 melanoma cells stained for Ki67 (red), active cleaved Caspase-3 (green) and nuclear counterstain DAPI (blue). […] Insets are zoom in on specific cells, Denotation: CP3, Caspase-3. Scale bars: 100 μm. ** (P<0.01), *** (P<0.001).
# FIG. 24A—Images depicting B16F10 melanoma cells stained for pYAP (red). […] FIG. 24D—Images depicting B16F10 melanoma cells stained for α-Catenin (green). […] FIG. 24E—Immunoblot analysis of proteins isolated from B16F10 melanoma cells using antibodies against pYAP, α-Catenin and α-Tubulin as control.
# [6] = system: 624-38 melanoma cell line; test: Proliferation of melanoma cell line 624-38; format: cell-based
# Description: (§2) FIGS. 14A-C depict inhibition of Caspase-3 attenuates proliferation of melanoma cells. […] FIG. 14C—Immunofluorescence of decreased Ki67^+ cells (green) after 4 days of Caspase-3 inhibition. Scale bars, 20 μm (FIG. 14C right panels), 100 μm (FIG. 14A, FIG. 14B panels).
# (§3) In order to examine this hypothesis, the present inventors first investigated the effect of caspase-3 inhibition on the proliferation rate of melanoma cells. […] Similar results were also obtained when examining 4 additional cell types (HaCaT keratinocytes, Hek293E3, K15 SG progenitors and hair follicle stem cells) (FIGS. 10A-F).
# α-Catenin = α-Catenin levels in low confluent HaCaT cells; format: cell-based
# Description: as §1
# TUNEL was performed using ApopTag TdT (Millipore). […] Analysis was performed on Zeiss LSM 880 confocal microscope.
# The levels of α-Catenin are known to be a critical factor in the regulation of YAP (27). In low confluent cells, diminished levels of α-Catenin serve as a mechanotransduction mechanism that instructs the nuclear translocation of YAP and drives proliferation (27, 33). […] The present inventors therefore examined the levels of α-Catenin both in vitro and in vivo, by employing both Western blot analysis and immunofluorescence.
# 501A melanoma cell line = test: Proliferation of melanoma cell line 501A; format: cell-based
# Description: as §2, §3
# YAP target genes = test: RT-PCR of YAP dependent target genes in treated HaCaT cells; format: cell-based; details: relative to DMSO treated cells
# Description: RNA extraction, reverse transcription and real-time PCR (RT-PCR)—RNA was isolated using Trizol (Sigma) and up to 2 μg of RNA were subjected to cDNA synthesis (Applied Biosystems). Real time PCR was carried out using the PerfeCTa SYBR Green FastMix (Quanta), with gene-specific primers [RpLp0 [sequence] […] Amplicon levels were analysed in triplicate and quantitated relative to a standard curve comprising cDNA, and values normalized to levels of the housekeeping gene (Rplp0 or Gapdh). Reactions were: 3 minutes at 95° C., then 40 cycles of 10 seconds at 95° C. and 30 seconds at 60° C. with addition of melt curve step: 10 seconds at 95° C., and increments of 0.5° C. every 5 seconds between 65° C. to 95° C.
substance,measurement,setting,value
z-DEVD-fmk,SG size,sebaceous gland (SG),decrease in SG size
same,levels of pYAP,YAP [1],increased pYAP levels
same,cell number,[2],dramatically inhibited
same,number of formed colonies,[2],dramatically inhibited
same,nuclear YAP localization,YAP [3],Decreased nuclear YAP localization
same,pYAP levels,YAP [3]; Western blot,increased pYAP levels
same,de novo HF regeneration from the wound bed,[4]; 20 and 30 days PWI,inhibited
same,wound closure,[4]; FIGS. 19A-F,significant decrease
same,cells positive for nuclear YAP in the wound border,"[4]; mouse, in vivo",Decreased nuclear YAP
same,wound size reduced by,"[4]; three days post wound infliction, injected from 2 days prior to wounding",20%
same,expansion of cells,[5],impaired the expansion
same,"effect on tumor development, one inhibitor compared with the other",human melanoma cells,stronger effect
same,proliferative (Ki67) cells,B16F10 melanoma cells,reduced levels of proliferative cells
same,phosphorylated YAP-positive cells (pYAP+),B16F10 melanoma cells; compared to DMSO,significant increases
same,growth of B16F10 melanoma cells,B16F10 melanoma cells; continuous presence of inhibitor,hindered
same,cell proliferation and number,[6],dramatic decrease
same,levels of α-Catenin,α-Catenin,increased levels
same,cell proliferation and number,501A melanoma cell line,dramatic decrease
same,"ErbB4 expression, downregulation",YAP target genes,6 fold
same,"HOXA5 expression, decrease",YAP target genes,2 fold
same,"HOXC13 expression, decrease",YAP target genes,5 fold
same,"WTIP expression, downregulation",YAP target genes,2 fold
